According to patent publication US12501900B2, “Heterocyclyl pyridazine as fungicidal compounds” (Bayer Aktiengesellschaft, priority 2018, dated 2025):

Legend:
[1] = tested on: Colletotrichum lindemuthianum; assay: Colletotrichum lindemuthianum in vitro cell test; format: cell-based; details: 144 h, 20 ppm of active ingredient, liquid culture, 6 days incubation, read-out: efficacy (inhibition of fungal growth)
Protocol: (§1) Example: Colletotrichum lindemuthianum In Vitro Cell Test • Solvent: DMSO • Culture medium: 14.6 g anhydrous D-glucose (VWR), 7.1 g Mycological Peptone (Oxoid), 1.4 g granulated Yeast Extract (Merck), QSP 1 liter • Inoculum: spores suspension Fungicides were solubilized in DMSO and the solution used to prepare the required range of concentrations. The final concentration of DMSO used in the assay was ≤1%. A spore suspension of C. lindemuthianum was prepared and diluted to the desired spore density. Fungicides were evaluated for their ability to inhibit spores germination and mycelium growth in liquid culture assay. The compounds were added in the desired concentration to the culture medium with spores. After 6 days incubation, fungi-toxicity of compounds was determined by spectrometric measurement of mycelium growth. Inhibition of fungal growth was determined by comparing the absorbance values in wells containing the fungicides with the absorbance in control wells without fungicides.

Septoria tritici [2] = assay: Septoria tritici in vitro cell test; format: cell-based; details: Zymoseptoria tritici, 168 h; 20 ppm of active ingredient; liquid culture, 7 days incubation; read-out: efficacy (inhibition of fungal growth)
Protocol: Example: Septoria tritici In Vitro Cell Test • Solvent: DMSO • Culture medium: 14.6 g anhydrous D-glucose (VWR), 7.1 g Bacteriological Peptone (Oxoid), • 1.4 g granulated Yeast Extract (Merck), QSP 1 liter • Inoculum: spore suspension Fungicides were solubilized in DMSO and the solution used to prepare the required range of concentrations. The final concentration of DMSO used in the assay was ≤1%. A spore suspension of Septoria tritici was prepared and diluted to the desired spore density. Fungicides were evaluated for their ability to inhibit spore germination and mycelium growth in liquid culture assay. The compounds were added in the desired concentration to the culture medium with spores. After 7 days incubation, fungi-toxicity of compounds was determined by spectrometric measurement of mycelium growth. Inhibition of fungal growth was determined by comparing the absorbance values in wells containing the fungicides with the absorbance in control wells without fungicides.

[3] = Measurement of LogP values by HPLC on reversed phase columns (EEC directive 79/831 Annex V.A8), methods [a], [b], [c]; format: physicochemical; details: HPLC on reversed phase column, method [a]; read-out: Log P
Protocol: Measurement of Log P values as provided herein was performed according to EEC directive 79/831 Annex V.A8 by HPLC (High Performance Liquid Chromatography) on reversed phase columns with the following methods: • ^[a]
If more than one Log P value is available within the same method, all the values are given and separated by “+”.
Lambda-max-values were determined using UV-spectra from 200 nm to 400 nm and the peak values of the chromatographic signals

Botrytis cinerea = assay: In vivo preventive test on Botrytis cinerea (grey mould); details: 500 ppm of active ingredient, preventive spray on gherkin or cabbage, evaluated 4 to 5 days after inoculation, read-out: efficacy
Protocol: Example: In Vivo Preventive Test on Botrytis cinerea (Grey Mould)
(§2) • Solvent: 5% by volume of Dimethyl sulfoxide • 10% by volume of Acetone • Emulsifier: 1 μl of Tween® 80 per mg of active ingredient
(§3) The active ingredients were made soluble and homogenized in a mixture of Dimethyl sulfoxide/Acetone//Tween®80 and then diluted in water to the desired concentration.
The young plants of gherkin or cabbage were treated by spraying the active ingredient prepared as described above. Control plants were treated only with an aqueous solution of Acetone/Dimethyl sulfoxide/Tween® 80.
After 24 hours, the plants were contaminated by spraying the leaves with an aqueous suspension of Botrytis cinerea spores. The contaminated gherkin plants were incubated for 4 to 5 days at 17° C. and at 90% relative humidity. The contaminated cabbage plants were incubated for 4 to 5 days at 20° C. and at 100% relative humidity.
The test was evaluated 4 to 5 days after the inoculation. 0% means an efficacy which corresponds to that of the control plants while an efficacy of 100% means that no disease was observed.

Alternaria brassicae = assay: In vivo preventive test on Alternaria brassicae (leaf spot on radish or cabbage); details: 144 h, 500 ppm of active ingredient, preventive spray on radish or cabbage, evaluated 6 days after inoculation, read-out: efficacy
Protocol: Example: In Vivo Preventive Test on Alternaria brassicae (Leaf Spot on Radish or Cabbage)
as §2, §3
The young plants of radish or cabbage were treated by spraying the active ingredient prepared as described above. Control plants were treated only with an aqueous solution of Acetone/Dimethyl sulfoxide/Tween® 80.
After 24 hours, the plants were contaminated by spraying the leaves with an aqueous suspension of Alternaria brassicae spores. The contaminated radish or cabbage plants were incubated for 6 days at 20° C. and at 100% relative humidity.
The test was evaluated 6 days after the inoculation. 0% means an efficacy which corresponds to that of the control plants while an efficacy of 100% means that no disease was observed.

Alternaria alternata = Alternaria alternata in vitro cell test; format: cell-based; details: 120 h, 20 ppm of active ingredient, liquid culture, 5 days incubation, read-out: efficacy (inhibition of fungal growth)
Protocol: as §1, with “Example: Alternaria alternata” for “Example: Colletotrichum lindemuthianum”, “of A. alternata” for “of C. lindemuthianum”, “inhibit spore” for “inhibit spores”, “After 5” for “After 6”

[4] = tested on: Colletotrichum lindemuthianum; assay: In vivo preventive test on Colletotrichum lindemuthianum (leaf spot on bean); details: 168 h, 500 ppm of active ingredient, preventive spray on bean, evaluated 7 days after inoculation, read-out: efficacy
Protocol: Example: In Vivo Preventive Test on Colletotrichum lindemuthianum (Leaf Spot on Bean)
as §2, §3
The young plants of bean were treated by spraying the active ingredient prepared as described above. Control plants were treated only with an aqueous solution of Acetone/Dimethyl sulfoxide/Tween® 80.
After 24 hours, the plants were contaminated by spraying the leaves with an aqueous suspension of Colletotrichum lindemuthianum spores. The contaminated bean plants were incubated for 24 hours at 20° C. and at 100% relative humidity and then for 6 days at 20° C. and at 90% relative humidity.
The test was evaluated 7 days after the inoculation. 0% means an efficacy which corresponds to that of the control plants while an efficacy of 100% means that no disease was observed.

Pyrenophora teres = assay: In vivo preventive test on Pyrenophora teres (net blotch on barley); details: 240 h, 500 ppm of active ingredient, preventive spray on barley, evaluated 10 days after inoculation, read-out: efficacy
Protocol: Example: In Vivo Preventive Test on Pyrenophora teres (Net Blotch on Barley)
as §2, §3
The young plants of barley were treated by spraying the active ingredient prepared as described above. Control plants were treated only with an aqueous solution of Acetone/Dimethyl sulfoxide/Tween®80.
After 24 hours, the plants were contaminated by spraying the leaves with an aqueous suspension of Pyrenophora teres spores. The contaminated barley plants were incubated for 48 hours at 20° C. and at 100% relative humidity and then for 8 days at 20° C. and at 70-80% relative humidity.
The test was evaluated 10 days after the inoculation. 0% means an efficacy which corresponds to that of the control plants while an efficacy of 100% means that no disease was observed.

Sphaerotheca fuliginea = assay: In vivo preventive test on Sphaerotheca fuliginea (powdery mildew on cucurbits); details: Podosphaera fuliginea, 192 h; 500 ppm of active ingredient; preventive spray on gherkin; evaluated 8 days after inoculation; read-out: efficacy
Protocol: Example: In Vivo Preventive Test on Sphaerotheca fuliginea (Powdery Mildew on Cucurbits)
as §2, §3
The young plants of gherkin were treated by spraying the active ingredient prepared as described above. Control plants were treated only with an aqueous solution of Acetone/Dimethyl sulfoxide/Tween® 80.
After 24 hours, the plants were contaminated by spraying the leaves with an aqueous suspension of Sphaerotheca fuliginea spores. The contaminated gherkin plants were incubated for 8 days at 20° C. and at 70-80% relative humidity.
The test was evaluated 8 days after the inoculation. 0% means an efficacy which corresponds to that of the control plants while an efficacy of 100% means that no disease was observed.

Septoria tritici [5] = assay: In vivo preventive test on Septoria tritici (leaf spot on wheat); details: Zymoseptoria tritici, in Triticum aestivum; 500 ppm of active ingredient; preventive spray on wheat; evaluated 19 days after inoculation; read-out: efficacy
Protocol: Example: In Vivo Preventive Test on Septoria tritici (Leaf Spot on Wheat)
as §2, §3
The young plants of wheat were treated by spraying the active ingredient prepared as described above. Control plants were treated only with an aqueous solution of Acetone/Dimethyl sulfoxide/Tween®80.
After 24 hours, the plants were contaminated by spraying the leaves with an aqueous suspension of Septoria tritici spores. The contaminated wheat plants were incubated for 72 hours at 17° C. and at 100% relative humidity and then for 15 days at 20° C. and at 90% relative humidity.
The test was evaluated 19 days after the inoculation. 0% means an efficacy which corresponds to that of the control plants while an efficacy of 100% means that no disease was observed.

SMILES: FC(F)(F)c1cccc(Oc2nnc(Cl)cc2C2=NCC(Cc3ccc(Cl)cc3Cl)N2)c1 (racemic) [I-007, 6-chloro-4-[rac-5-[(2,4-dichlorophenyl)methyl]-4,5-dihydro-1H-imidazol-2-yl]-3-[3-(trifluoromethyl)phenoxy]pyridazine]
- inhibition at 20 ppm [1]: 90 to 100%
- inhibition at 20 ppm (Septoria tritici [2]): 90 to 100%
- chromatographic logP [3]: 2.39
- pest or weed control at 500 ppm (Botrytis cinerea): 90 to 100%
- pest or weed control at 500 ppm (Alternaria brassicae): 90 to 100%
- inhibition at 20 ppm (Alternaria alternata): 90 to 100%

SMILES: Cc1cc(C2=NOCC(c3cn(C)c4ccccc34)N2)c(Oc2cccc(C(F)(F)F)c2)nn1 (racemic) [I-011, rac-5-(1-methylindol-3-yl)-3-[6-methyl-3-[3-(trifluoro-methyl)phenoxy]pyridazin-4-yl]-5,6-dihydro-4H-1,2,4-oxadiazine]
- inhibition at 20 ppm [1]: 90 to 100%
- inhibition at 20 ppm (Septoria tritici [2]): 90 to 100%
- chromatographic logP [3]: 3.23
- pest or weed control at 500 ppm (Botrytis cinerea): 90 to 100%
- pest or weed control at 500 ppm [4]: 80 to 89%
- pest or weed control at 500 ppm (Alternaria brassicae): 90 to 100%
- pest or weed control at 500 ppm (Pyrenophora teres): 70 to 79%
- inhibition at 20 ppm (Alternaria alternata): 90 to 100%
- pest or weed control at 500 ppm (Sphaerotheca fuliginea): 90 to 100%

SMILES: CC(=O)c1cc(C2=NOCC(Cc3ccc(C)cc3C)N2)c(Oc2cccc(C(F)(F)F)c2)nn1 (racemic) [I-042, 1-[5-[rac-5-[(2,4-dimethylphenyl)methyl]-5,6-dihydro-4H-1,2,4-oxadiazin-3-yl]-6-[3-(trifluoromethyl)phenoxy]pyridazin-3-yl]ethanone]
- inhibition at 20 ppm [1]: 90 to 100%
- chromatographic logP [3]: 4.27
- pest or weed control at 500 ppm (Botrytis cinerea): 90 to 100%
- pest or weed control at 500 ppm [4]: 90 to 100%
- pest or weed control at 500 ppm (Septoria tritici [5]): 90 to 100%
- pest or weed control at 500 ppm (Alternaria brassicae): 90 to 100%
- pest or weed control at 500 ppm (Pyrenophora teres): 90 to 100%
- inhibition at 20 ppm (Alternaria alternata): 90 to 100%
- pest or weed control at 500 ppm (Sphaerotheca fuliginea): 90 to 100%

SMILES: Cc1ccc(CC2CON=C(c3cc(Cl)nnc3Oc3cccc(C(F)(F)F)c3)N2)c(C)c1 (racemic) [I-059, rac-3-[6-chloro-3-[3-(trifluoromethyl)phenoxy]pyridazin-4-yl]-5-[(2,4-dimethylphenyl)methyl]-5,6-dihydro-4H-1,2,4-oxadiazine]
- inhibition at 20 ppm [1]: 90 to 100%
- inhibition at 20 ppm (Septoria tritici [2]): 90 to 100%
- pest or weed control at 500 ppm (Botrytis cinerea): 90 to 100%
- pest or weed control at 500 ppm [4]: 90 to 100%
- pest or weed control at 500 ppm (Septoria tritici [5]): 90 to 100%
- pest or weed control at 500 ppm (Alternaria brassicae): 90 to 100%
- pest or weed control at 500 ppm (Pyrenophora teres): 90 to 100%
- inhibition at 20 ppm (Alternaria alternata): 90 to 100%
- pest or weed control at 500 ppm (Sphaerotheca fuliginea): 90 to 100%

SMILES: Cc1ccc(CC2CON=C(c3c(Oc4cccc(C(F)(F)F)c4)nnc(Cl)c3-c3ccncc3)N2)c(C)c1 (racemic) [I-088, rac-3-[6-chloro-5-(4-pyridyl)-3-[3-(trifluoro-methyl)phenoxy]pyridazin-4-yl]-5-[(2,4-dimethylphenyl)methyl]-5,6-dihydro-4H-1,2,4-oxadiazine]
- inhibition at 20 ppm [1]: 90 to 100%
- chromatographic logP [3]: 3.76
- pest or weed control at 500 ppm (Botrytis cinerea): 90 to 100%
- pest or weed control at 500 ppm [4]: 90 to 100%
- pest or weed control at 500 ppm (Septoria tritici [5]): 70 to 79%
- pest or weed control at 500 ppm (Alternaria brassicae): 90 to 100%
- pest or weed control at 500 ppm (Pyrenophora teres): 90 to 100%
- inhibition at 20 ppm (Alternaria alternata): 90 to 100%
- pest or weed control at 500 ppm (Sphaerotheca fuliginea): 90 to 100%

SMILES: Cc1ccc(CC2CNN=C(c3cc(Cl)nnc3Oc3cccc(C(F)(F)F)c3)N2)c(C)c1 (racemic) [I-173, rac-3-[6-chloro-3-[3-(trifluoromethyl)phenoxy]pyridazin-4-yl]-5-[(2,4-dimethylphenyl)methyl]-1,4,5,6-tetrahydro-1,2,4-triazine]
- inhibition at 20 ppm [1]: 90 to 100%
- chromatographic logP [3]: 3.31
- pest or weed control at 500 ppm (Botrytis cinerea): 90 to 100%
- pest or weed control at 500 ppm [4]: 90 to 100%
- pest or weed control at 500 ppm (Alternaria brassicae): 90 to 100%
- pest or weed control at 500 ppm (Pyrenophora teres): 90 to 100%
- inhibition at 20 ppm (Alternaria alternata): 90 to 100%
- pest or weed control at 500 ppm (Sphaerotheca fuliginea): 90 to 100%

SMILES: FC(F)(F)c1cccc(Oc2nnc(Cl)cc2C2=NOC[C@H](Cc3ccccc3)N2)c1 (single isomer, unassigned) [I-070]
- inhibition at 20 ppm [1]: 90 to 100%
- inhibition at 20 ppm (Septoria tritici [2]): 80 to 89%
- chromatographic logP [3]: 3.81
- pest or weed control at 500 ppm (Botrytis cinerea): 90 to 100%
- pest or weed control at 500 ppm [4]: 90 to 100%
- pest or weed control at 500 ppm (Alternaria brassicae): 90 to 100%
- pest or weed control at 500 ppm (Pyrenophora teres): 90 to 100%
- inhibition at 20 ppm (Alternaria alternata): 90 to 100%
- pest or weed control at 500 ppm (Sphaerotheca fuliginea): 90 to 100%
